Results from patent US20180289665A1, “USE OF CANNABIS TO TREAT MIGRAINE” (ONE WORLD CANNABIS LTD, priority 2014, published 2018).

Tests used:
[1] = test system: patients with acute migraine attack; test: Clinical trial of THC vs ibuprofen in acute migraine attack (Example 2); type: in vivo, human; conditions: primary endpoint; assumption for sample size
From the text: To assess the effect of Tetrahydrocannabinol (THC) or a derivative thereof vs. NSAIDs (such as ibuprofen) in relieving acute migraine attack.
This example provides a prospective randomized double-blind, placebo-controlled trial.
The study population includes patients presenting with chief complaint an acute migraine attack to the emergency department (ED) at Soroka University Medical Center.
The study population is randomized into “double dummy” design (ratio 1:1): • Group 1—received Tetrahydrocannabinol (THC) and placebo tab ibuprofen. • Group 2—received placebo Tetrahydrocannabinol (THC) drops and tab ibuprofen.
The THC study doses include dose rages of between about 5 mg and up to 50 mg THC, preferably dose ranges of between about 10 mg THC and about 30 mg THC.
According to one embodiment, an ethanol extracted cannabis oil dissolved in a vegetable oil (with a distinct taste to differentiate it from the placebo oil) is used in this study. The aforementioned cannabis composition comprises THC dose range of about 20 mg to about 40 mg.
Headache and nausea severity is assessed using a 4-point pain severity scale (score 0-3) as detailed above. […] Additionally, THC blood levels are measured at about 30, 60 minutes and 2 hours. […]

[2] = test system: dural blood vessel dilation; conditions: dilation from electrical stimulation, calcitonin gene-related peptide, nitrous oxide and capsaicin; reversed by a cannabinoid antagonist; cited from earlier work

Row | SMILES | expected treatment failure rate [1] [%] | dural blood vessel dilation [2]
1 | CCCCCc1cc(O)c2c(c1)OC(C)(C)[C@@H]1CCC(C)=C[C@@H]21 [THC, Δ9-Tetrahydrocannabinol] | 40 | 
2 | CCCCC/C=C\C/C=C\C/C=C\C/C=C\CCCC(=O)NCCO [AEA, N-arachidonoylethanolamine] |  | inhibit
